From patent US9683019B2, “Cyclic polypeptides for the treatment of heart failure” (priority 2013, dated 2017)
Where a SMILES comes first, the peptide text is derived from it. Bridges are numbered along the chain shown (N, C = ends). [ ]: non-standard residue; d: D form. The star is where a group is joined. 2Nal = N[C@@H](Cc1ccc2ccccc2c1)C(=O)O; N(Me)CH2CH2Ph = CN(CCc1ccccc1)*; pGlu = O=C1CC[C@@H](C(=O)O)N1; NHPhenethyl = c1ccc(CCN*)cc1; d(hCys) = N[C@H](CCS)C(=O)O; dNle = CCCC[C@@H](N)C(=O)O; hCys = N[C@@H](CCS)C(=O)O; Nle = CCCC[C@H](N)C(=O)O

Assay: Surrogate Activity-Based Plasma Stability Assay
Assay type: in vitro ADME
Conditions: rat
Description: Surrogate Activity-Based Plasma Stability Assay:
2) Calculate slope of value above and […]

Row | Compound | half-life [min]
1 | CCCC[C@H](NC(=O)[C@@H]1CCCN1C(=O)CNC(=O)[C@H](CCCCN)NC(=O)[C@@H]1CSSC[C@H](NC(C)=O)C(=O)N[C@@H](CCCNC(=N)N)C(=O)N2CCC[C@H]2C(=O)N[C@@H](CCCNC(=N)N)C(=O)N[C@@H](CC(C)C)C(=O)N[C@@H](CO)C(=O)N1)C(=O)N1CCC[C@H]1C(=O)N[C@@H](Cc1ccccc1)C(=O)O [Example 1, Ac-C*-R-P-R-L-S-C*-K-G-P-Nle-P-F-OH] (Ac-CRPRLSCKGP[Nle]PF-OH; disulfide 1-7) | 8
2 | CCCC[C@H](NC(=O)[C@@H]1CCCN1C(=O)CNC(=O)[C@H](CCCCN)NC(=O)[C@@H]1CSSC[C@H](NC(C)=O)C(=O)N[C@@H](CCCNC(=N)N)C(=O)N2CCC[C@H]2C(=O)N[C@@H](CCCNC(=N)N)C(=O)N[C@@H](CC(C)C)C(=O)N[C@@H](CO)C(=O)N1)C(=O)N1CCC[C@H]1C(=O)NCCc1ccccc1 [Example 2, Ac-C*-R-P-R-L-S-C*-K-G-P-Nle-P-NH(Phenethyl)] (Ac-CRPRLSCKGP[Nle]P-NHPhenethyl; disulfide 1-7) | 39
3 | CCCC[C@H](NC(=O)[C@@H]1CCCN1C(=O)CNC(=O)[C@H](CCCCN)NC(=O)[C@@H]1CSSC[C@H](NC(C)=O)C(=O)N[C@@H](CCCNC(=N)N)C(=O)N2CCC[C@H]2C(=O)N[C@@H](CCCNC(=N)N)C(=O)N[C@@H](CC(C)C)C(=O)N[C@@H](CO)C(=O)N1)C(=O)N1CCC[C@H]1C(N)=O [Example 4, Ac-C*-R-P-R-L-S-C*-K-G-P-Nle-P-NH2] (Ac-CRPRLSCKGP[Nle]P-NH2; disulfide 1-7) | 506
4 | CCCC[C@H](NC(=O)[C@@H]1CCCN1C(=O)CNC(=O)[C@H](CCCCN)NC(=O)[C@@H]1CSSC[C@H](NC(C)=O)C(=O)N[C@@H](CCCNC(=N)N)C(=O)N2CCC[C@H]2C(=O)N[C@@H](CCCNC(=N)N)C(=O)N[C@@H](CC(C)C)C(=O)N[C@@H](CO)C(=O)N1)C(=O)N1CCC[C@H]1C(=O)N[C@@H](Cc1ccc2ccccc2c1)C(=O)O [Example 5, Ac-C*-R-P-R-L-S-C*-K-G-P-Nle-P-Nal-OH] (Ac-CRPRLSCKGP[Nle]P[2Nal]-OH; disulfide 1-7) | 5
5 | CCCC[C@H](NC(=O)[C@@H]1CCCN1C(=O)CNC(=O)[C@H](CCCCN)NC(=O)[C@@H]1CCSSCC[C@H](NC(C)=O)C(=O)N[C@@H](CCCNC(=N)N)C(=O)N2CCC[C@H]2C(=O)N[C@@H](CCCNC(=N)N)C(=O)N[C@@H](CC(C)C)C(=O)N[C@@H](CO)C(=O)N1)C(=O)N1CCC[C@H]1C(=O)N[C@@H](Cc1ccccc1)C(=O)O [Example 7, Ac-hC*-R-P-R-L-S-hC*-K-G-P-Nle-P-F-OH] (Ac-[hCys]RPRLS[hCys]KGP[Nle]PF-OH; disulfide 1-7) | 9
6 | CCCC[C@H](NC(=O)[C@@H]1CCCN1C(=O)CNC(=O)[C@H](CCCCN)NC(=O)[C@@H]1CSSC[C@H](NC(C)=O)C(=O)N[C@@H](CCCNC(=N)N)C(=O)N2CCC[C@H]2C(=O)N[C@@H](CCCNC(=N)N)C(=O)N[C@@H](CC(C)C)C(=O)N[C@@H](CO)C(=O)N1)C(=O)N1CCC[C@H]1C(=O)N[C@H](C)C(=O)O [Example 8, Ac-C*-R-P-R-L-S-C*-K-G-P-Nle-P-a-OH] (Ac-CRPRLSCKGP[Nle]P[dA]-OH; disulfide 1-7) | 662
7 | CCCC[C@H](NC(=O)[C@@H]1CCCN1C(=O)CNC(=O)[C@H](CCCCN)NC(=O)[C@@H]1CSSC[C@H](NC(C)=O)C(=O)N[C@@H](CCCNC(=N)N)C(=O)N2CCC[C@H]2C(=O)N[C@@H](CCCNC(=N)N)C(=O)N[C@@H](CC(C)C)C(=O)N[C@@H](CO)C(=O)N1)C(=O)N1CCC[C@H]1C(=O)N[C@H](Cc1ccccc1)C(=O)O [Example 10, Ac-C*-R-P-R-L-S-C*-K-G-P-Nle-P-f-OH] (Ac-CRPRLSCKGP[Nle]P[dF]-OH; disulfide 1-7) | 57.4
8 | CCCC[C@H](NC(=O)[C@@H]1CCCN1C(=O)CNC(=O)[C@H](CCCCN)NC(=O)[C@@H]1CSSC[C@H](NC(C)=O)C(=O)N[C@@H](CCCNC(=N)N)C(=O)N2CCC[C@H]2C(=O)N[C@@H](CCCNC(=N)N)C(=O)N[C@@H](CC(C)C)C(=O)N[C@@H](CO)C(=O)N1)C(=O)NCCc1ccccc1 [Example 11, Ac-C*-R-P-R-L-S-C*-K-G-P-Nle-NH(Phenethyl)] (Ac-CRPRLSCKGP[Nle]-NHPhenethyl; disulfide 1-7) | 32.8
9 | CCCC[C@H](NC(=O)[C@@H]1CCCN1C(=O)CNC(=O)[C@H](CCCCN)NC(=O)[C@@H]1CCSSC[C@@H](NC(C)=O)C(=O)N[C@@H](CCCNC(=N)N)C(=O)N2CCC[C@H]2C(=O)N[C@@H](CCCNC(=N)N)C(=O)N[C@@H](CC(C)C)C(=O)N[C@@H](CO)C(=O)N1)C(=O)N1CCC[C@H]1C(=O)N[C@@H](Cc1ccccc1)C(=O)O [Example 13, Ac-c*-R-P-R-L-S-hC*-K-G-P-Nle-P-F-OH] (Ac-[dC]RPRLS[hCys]KGP[Nle]PF-OH; disulfide 1-7) | 10
10 | CCCC[C@H](NC(=O)[C@@H]1CCCN1C(=O)CNC(=O)[C@H](CCCCN)NC(=O)[C@H]1CSSC[C@@H](NC(C)=O)C(=O)N[C@@H](CCCNC(=N)N)C(=O)N2CCC[C@H]2C(=O)N[C@@H](CCCNC(=N)N)C(=O)N[C@@H](CC(C)C)C(=O)N[C@@H](CO)C(=O)N1)C(=O)N1CCC[C@H]1C(=O)N[C@@H](Cc1ccccc1)C(=O)O [Example 14, Ac-c*-R-P-R-L-S-c*-K-G-P-Nle-P-F-OH] (Ac-[dC]RPRLS[dC]KGP[Nle]PF-OH; disulfide 1-7) | 7.5

Continued, values first:

Row | half-life [min] | Compound
11 | 7 | CCCC[C@H](NC(=O)[C@@H]1CCCN1C(=O)CNC(=O)[C@H](CCCCN)NC(=O)[C@@H]1CCSSCC[C@@H](NC(C)=O)C(=O)N[C@@H](CCCNC(=N)N)C(=O)N2CCC[C@H]2C(=O)N[C@@H](CCCNC(=N)N)C(=O)N[C@@H](CC(C)C)C(=O)N[C@@H](CO)C(=O)N1)C(=O)N1CCC[C@H]1C(=O)N[C@@H](Cc1ccccc1)C(=O)O [Example 16, Ac-(D-hC)*-R-P-R-L-S-hC*-K-G-P-Nle-P-F-OH] (Ac-[d(hCys)]RPRLS[hCys]KGP[Nle]PF-OH; disulfide 1-7)
12 | 11.4 | CCCC[C@H](NC(=O)[C@@H]1CCCN1C(=O)CNC(=O)[C@H](CCCCN)NC(=O)[C@H]1CCSSCC[C@@H](NC(C)=O)C(=O)N[C@@H](CCCNC(=N)N)C(=O)N2CCC[C@H]2C(=O)N[C@@H](CCCNC(=N)N)C(=O)N[C@@H](CC(C)C)C(=O)N[C@@H](CO)C(=O)N1)C(=O)N1CCC[C@H]1C(=O)N[C@@H](Cc1ccccc1)C(=O)O [Example 17, Ac-(D-hC)*-R-P-R-L-S-(D-hC)*-K-G-P-Nle-P-F-OH] (Ac-[d(hCys)]RPRLS[d(hCys)]KGP[Nle]PF-OH; disulfide 1-7)
13 | 50 | CC(=O)N[C@@H]1CCSSCC[C@@H](C(=O)N[C@@H](CCCCN)C(=O)NCC(=O)N2CCC[C@H]2C(=O)N[C@H](Cc2ccccc2)C(=O)N[C@H](C)C(=O)N[C@H](Cc2ccccc2)C(=O)O)NC(=O)[C@H](CO)NC(=O)[C@H](CC(C)C)NC(=O)[C@H](CCCNC(=N)N)NC(=O)[C@@H]2CCCN2C(=O)[C@H](CCCNC(=N)N)NC1=O [Example 18, Ac-(D-hC)*-R-P-R-L-S-(hC)*-K-G-P-f-a-f-OH] (Ac-[d(hCys)]RPRLS[hCys]KGP[dF][dA][dF]-OH; disulfide 1-7)
14 | 50 | CCCC[C@@H](NC(=O)[C@@H]1CCCN1C(=O)CNC(=O)[C@H](CCCCN)NC(=O)[C@@H]1CCSSC[C@@H](NC(C)=O)C(=O)N[C@@H](CCCNC(=N)N)C(=O)N2CCC[C@H]2C(=O)N[C@@H](CCCNC(=N)N)C(=O)N[C@@H](CC(C)C)C(=O)N[C@@H](CO)C(=O)N1)C(=O)N[C@H](C)C(=O)N[C@H](Cc1ccccc1)C(=O)O [Example 19, Ac-c-R-P-R-L-S-(hC)-K-G-P-(D-Nle)-a-f-OH] (Ac-[dC]RPRLS[hCys]KGP[dNle][dA][dF]-OH; disulfide 1-7 (inferred))
15 | 11.9 | CCCC[C@H](NC(=O)[C@@H]1CCCN1C(=O)CNC(=O)[C@H](CCCCN)NC(=O)[C@@H]1CSSC[C@H](NC(=O)[C@H](CCCNC(=N)N)NC(=O)[C@@H]2CCC(=O)N2)C(=O)N[C@@H](CCCNC(=N)N)C(=O)N[C@@H](CC(C)C)C(=O)N[C@@H](CO)C(=O)N1)C(=O)N1CCC[C@H]1C(=O)N[C@@H](Cc1ccccc1)C(=O)O [Example 20, pE-R-C*-R-L-S-C*-K-G-P-Nle-P-F-OH] ([pGlu]RCRLSCKGP[Nle]PF-OH; disulfide 3-7)
16 | > 1000 | CCCC[C@@H](NC(=O)[C@@H]1CCCN1C(=O)CNC(=O)[C@H](CCCCN)NC(=O)[C@@H]1CSSC[C@H](NC(=O)[C@H](CCCNC(=N)N)NC(=O)[C@@H]2CCC(=O)N2)C(=O)N[C@@H](CCCNC(=N)N)C(=O)N[C@@H](CC(C)C)C(=O)N[C@@H](CO)C(=O)N1)C(=O)N[C@H](C)C(=O)N[C@H](Cc1ccccc1)C(=O)O [Example 21, pE-R-C*-R-L-S-C*-K-G-P-(D-Nle)-a-f-OH] ([pGlu]RCRLSCKGP[dNle][dA][dF]-OH; disulfide 3-7)
17 | > 1000 | CCCC[C@@H](NC(=O)[C@@H]1CCCN1C(=O)CNC(=O)[C@H](Cc1ccccc1)NC(=O)[C@@H]1CSSC[C@H](NC(=O)[C@H](CCCNC(=N)N)NC(=O)[C@@H]2CCC(=O)N2)C(=O)N[C@@H](CCCNC(=N)N)C(=O)N[C@@H](CC(C)C)C(=O)N[C@@H](CO)C(=O)N1)C(=O)N[C@H](C)C(=O)N[C@H](Cc1ccccc1)C(=O)O [Example 22, pE-R-C*-R-L-S-C*-F-G-P-(D-Nle)-a-f-OH] ([pGlu]RCRLSCFGP[dNle][dA][dF]-OH; disulfide 3-7)
18 | 3160 | CCCC[C@@H](NC(=O)[C@@H]1CCCN1C(=O)[C@@H](C)NC(=O)[C@H](CCCCN)NC(=O)[C@@H]1CSSC[C@H](NC(=O)[C@H](CCCNC(=N)N)NC(=O)[C@@H]2CCC(=O)N2)C(=O)N[C@@H](CCCNC(=N)N)C(=O)N[C@@H](CC(C)C)C(=O)N[C@@H](CO)C(=O)N1)C(=O)N[C@H](C)C(=O)N[C@H](Cc1ccccc1)C(=O)O [Example 23, pE-R-C*-R-L-S-C*-K-a-P-(D-Nle)-a-f-OH] ([pGlu]RCRLSCK[dA]P[dNle][dA][dF]-OH; disulfide 3-7)

Same assay, conditions: rat, read-out: Surrogate activity-based Plasma stability t½

Row | Compound | half-life [min]
19 | CCCC[C@H](NC(=O)[C@@H]1CCCN1C(=O)CNC(=O)[C@H](CCCCN)NC(=O)[C@@H]1CSSC[C@H](NC(C)=O)C(=O)N[C@@H](CCCNC(=N)N)C(=O)N2CCC[C@H]2C(=O)N[C@@H](CCCNC(=N)N)C(=O)N[C@@H](CC(C)C)C(=O)N[C@@H](CO)C(=O)N1)C(=O)N1CCC[C@H]1C(=O)N(C)CCc1ccccc1 [Example 9, Ac-C*-R-P-R-L-S-C*-K-G-P-Nle-P-NMe(Phenethyl)] (Ac-CRPRLSCKGP[Nle]P-{N(Me)CH2CH2Ph}; disulfide 1-7) | 109
